In the supplement of paper PMC10307832:

Columns and labels:
Assay in all cases: relative viability (nuclei count vs DMSO), 5 days (fraction); higher = more cells survive
Bortezomib + Luminespib = compound: CC(C)C[C@H](NC(=O)[C@H](Cc1ccccc1)NC(=O)c1cnccn1)B(O)O [Bortezomib] + CCNC(=O)c1noc(-c2cc(C(C)C)c(O)cc2O)c1-c1ccc(CN2CCOCC2)cc1 [Luminespib] (partner 0.01 µM)
Procedure, shortened: (§1)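 Medians of duplicate plates are given as relative viability. That measure is the nuclei count in treated wells divided by the count in vehicle wells. Counts were taken on 4× images of lung cancer cell lines in 1536-well plates, 5 days after pin-tool dosing the day after seeding with one drug alone or a fixed anchor-drug dose plus five library-drug doses (not always all listed) in √10 steps.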

[1] = compound: CC1=CC(=NN1)NC2=CC(=NC(=N2)/C=C/C3=CC=CC=C3)N4CCN(CC4)C + CC(=O)c1c(C)c2cnc(Nc3ccc(N4CCNCC4)cn3)nc2n(C2CCCC2)c1=O [Palbociclib] (partner 0.5 µM)
Procedure, shortened: as §1

Bortezomib + Linsitinib = compound: CC(C)C[C@H](NC(=O)[C@H](Cc1ccccc1)NC(=O)c1cnccn1)B(O)O [Bortezomib] + C[C@]1(O)C[C@@H](c2nc(-c3ccc4ccc(-c5ccccc5)nc4c3)c3c(N)nccn32)C1 [Linsitinib] (partner 1 µM)
Procedure, shortened: as §1

Bortezomib + OSI-027 = compound: CC(C)C[C@H](NC(=O)[C@H](Cc1ccccc1)NC(=O)c1cnccn1)B(O)O [Bortezomib] + COc1cccc2cc(-c3nc([C@H]4CC[C@H](C(=O)O)CC4)n4ncnc(N)c34)[nH]c12 [OSI-027] (partner 0.5 µM)
Procedure, shortened: as §1

Row | Cell Line | relative viability (Bortezomib + Luminespib; first compound 0.0002 µM) | relative viability (Bortezomib + Luminespib; first compound 0.000632 µM) | relative viability (Bortezomib + Luminespib; first compound 0.002 µM) | relative viability (Bortezomib + Luminespib; first compound 0.006325 µM) | relative viability (Bortezomib + Luminespib; first compound 0.02 µM) | relative viability ([1]; first compound 0.08 µM) | relative viability ([1]; first compound 0.253 µM) | relative viability ([1]; first compound 0.8 µM) | relative viability ([1]; first compound 2.53 µM) | relative viability ([1]; first compound 8 µM) | relative viability (Bortezomib + Linsitinib; first compound 0.0002 µM) | relative viability (Bortezomib + Linsitinib; first compound 0.002 µM) | relative viability (Bortezomib + Linsitinib; first compound 0.006325 µM) | relative viability (Bortezomib + Linsitinib; first compound 0.02 µM) | relative viability (Bortezomib + OSI-027; first compound 0.0002 µM) | relative viability (Bortezomib + OSI-027; first compound 0.000632 µM) | relative viability (Bortezomib + OSI-027; first compound 0.002 µM) | relative viability (Bortezomib + OSI-027; first compound 0.006325 µM) | relative viability (Bortezomib + OSI-027; first compound 0.02 µM) | relative viability (Bortezomib + Linsitinib; first compound 0.000632 µM)
1 | LC-2-ad | 0.972 | 1.06 | 0.64 | 0.226 | 0.214 | 0.552 | 0.488 | 0.413 | 0.298 | 0.18 | 0.798 | 0.811 | 0.151 | 0.127 | 0.76 | 0.621 | 0.986 | 0.209 | 0.174 | 
2 | LCLC-97TM1 | 0.674 | 0.756 | 0.687 | 0.123 | 0.139 | 0.246 | 0.201 | 0.201 | 0.168 | 0.0556 | 0.187 | 0.14 | 0.146 | 0.111 | 0.475 | 0.336 | 0.583 | 0.233 | 0.129 | 0.17
3 | LCLC-103H | 0.902 | 0.955 | 0.495 | 0.175 | 0.152 | 0.44 | 0.438 | 0.491 | 0.422 | 0.349 | 1.06 | 1.25 | 1.09 | 0.272 | 0.482 | 0.511 | 0.492 | 0.201 | 0.14 | 1.07
4 | LK-2 | 0.182 | 0.186 | 0.238 | 0.182 | 0.172 | 0.61 | 0.691 | 0.547 | 0.33 | 0.0792 | 0.409 | 0.353 | 0.17 | 0.142 | 0.223 | 0.174 | 0.175 | 0.175 | 0.177 | 0.551
